System: HepG2 cells
Conditions: HepG2 conditioned medium, 10 μM, 24 h
Method: Ten million Snu398 or HepG2 cells per flask were plated in R10 medium in T150 tissue culture flasks and allowed to attach overnight. The following morning, medium was replaced with medium containing either DMSO or 10 μM LDHA inhibitor, and cells were incubated for 24 h at 37°C. The conditioned medium was collected and cells were washed, lifted by trypsinization and pelleted. Both medium and cell samples were submitted for mass spectroscopy (MS) analysis of over 500 individual metabolites. All samples were prepared in replicates of five.

## COc1ncc(-c2ccc3c(Nc4cc(C(=O)O)cc(C5CCCC5)c4)c(S(=O)(=O)NC4CC4)cnc3c2)c(OC)n1 [Compound 2]
  fold change 1-oleoylglycerophosphocholine: 0.94
  fold change 1-palmitoleoylglycerophosphocholine*: 0.91
  fold change 1-palmitoylglycerophosphocholine: 0.94
  fold change 1-stearoylglycerophosphocholine: 0.95
  fold change 2'-O-methylguanosine: 0.70
  fold change 2-aminobutyrate: 0.91
  fold change 2-hydroxybutyrate (AHB): 0.89
  fold change 2-hydroxyglutarate: 0.93
  fold change 2-methylbutyroylcarnitine: 0.94
  fold change 2-methylbutyrylglycine: 0.81
  fold change 2-oleoylglycerophosphocholine*: 0.96
  fold change 2-palmitoylglycerophosphocholine*: 0.98
  fold change 2-stearoylglycerophosphocholine*: 1.16
  fold change 3-(4-hydroxyphenyl)lactate: 1.15
  fold change 3-dehydrocarnitine*: 1.04
  fold change 3-indoxyl sulfate: 0.96
  fold change 3-methyl-2-oxobutyrate: 0.99
  fold change 3-methyl-2-oxovalerate: 0.94
  fold change 4-acetamidobutanoate: 0.92
  fold change 4-guanidinobutanoate: 0.88
  fold change 4-methyl-2-oxopentanoate: 0.96
  fold change 5-oxoproline: 1.02
  fold change 6'-sialyllactose: 1.01
  fold change C-glycosyltryptophan*: 1.06
  fold change HEPES: 0.97
  fold change Isobar: 2-propylpentanoic acid, 2-ethylhexanoic acid: 1.01
  fold change N1-methyladenosine: 1.02
  fold change N1-methylguanosine: 0.87
  fold change N6-carbamoylthreonyladenosine: 1.10
  fold change N-acetylaspartate (NAA): 0.70
  fold change N-acetylneuraminate: 1.09
  fold change N-acetylornithine: 0.99
  fold change X - 02952: 8.06
  fold change X - 02973: 1.18
  fold change X - 03090: 0.99
  fold change X - 04015: 1.00
  fold change X - 04133: 1.08
  fold change X - 04135: 1.13
  fold change X - 04148: 0.80
  fold change X - 04252: 0.53
  fold change X - 04357: 1.09
  fold change X - 05907: 0.49
  fold change X - 06126: 0.78
  fold change X - 06911: 0.99
  fold change X - 08172: 0.15
  fold change X - 08889: 1.21
  fold change X - 08895: 1.11
  fold change X - 09008: 0.87
  fold change X - 09026: 0.58
  fold change X - 10475: 0.76
  fold change X - 10476: 0.43
  fold change X - 10634: 0.56
  fold change X - 10740: 1.18
  fold change X - 10869: 0.93
  fold change X - 11081: 1.03
  fold change X - 11315: 0.83
  fold change X - 11533: 1.04
  fold change X - 11593: 1.12
  fold change X - 11787: 1.01
  fold change X - 12013: 1.09
  fold change X - 12015: 0.97
  fold change X - 12117: 0.78
  fold change X - 12216: 0.72
  fold change X - 12339: 1.38
  fold change X - 12435: 0.91
  fold change X - 12602: 0.93
  fold change X - 12729: 1.15
  fold change X - 12749: 0.95
  fold change X - 12776: 0.86
  fold change X - 12786: 1.07
  fold change X - 12792: 0.77
  fold change X - 12799: 1.04
  fold change X - 12944: 0.83
  fold change X - 13100: 1.00
  fold change X - 13103: 0.95
  fold change X - 13104: 1.11
  fold change X - 13110: 1.00
  fold change X - 13115: 0.98
  fold change X - 13117: 1.01
  fold change X - 13166: 0.95
  fold change X - 13483: 0.84
  fold change X - 13491: 1.19
  fold change X - 13494: 0.82
  fold change X - 13496: 1.11
  fold change X - 13507: 1.00
  fold change X - 13553: 1.05
  fold change X - 13581: 1.00
  fold change X - 13857: 0.74
  fold change X - 14056: 0.96
  fold change X - 14574: 0.86
  fold change X - 14588: 0.93
  fold change X - 15558: 1.17
  fold change X - 15559: 1.15
  fold change X - 15562: 1.13
  fold change X - 15563: 1.13
  fold change X - 15678: 1.32
  fold change X - 15808: 1.14
  fold change X - 16103: 0.86
  fold change X - 16116: 1.18
  fold change X - 16200: 1.04
  fold change X - 16206: 0.95
  fold change X - 16439: 1.13
  fold change X - 16444: 1.07
  fold change X - 17112: 1.02
  fold change X - 17430: 1.13
  fold change acetylcarnitine: 0.95
  fold change acetylphosphate: 0.92
  fold change alanine: 0.99
  fold change alanylglutamine: 0.96
  fold change allantoin: 0.85
  fold change arabitol: 0.72
  fold change arachidonate (20:4n6): 1.07
  fold change arginine: 0.98
  fold change asparagine: 0.30
  fold change aspartate: 0.84
  fold change aspartylleucine: 1.01
  fold change beta-alanine: 1.41
  fold change beta-hydroxyisovalerate: 0.84
  fold change beta-hydroxypyruvate: 0.79
  fold change betaine: 0.97
  fold change biotin: 0.96
  fold change butyrylcarnitine: 0.90
  fold change caproate (6:0): 0.83
  fold change caprylate (8:0): 0.79
  fold change carnitine: 1.03
  fold change catechol sulfate: 1.01
  fold change choline: 1.06
  fold change citrate: 0.97
  fold change citrulline: 0.87
  fold change creatine: 1.02
  fold change creatinine: 0.94
  fold change cyclo(leu-ala): 0.49
  fold change cysteine: 0.78
  fold change cysteine sulfinic acid: 1.00
  fold change cysteine-glutathione disulfide: 1.28
  fold change deoxycarnitine: 0.98
  fold change dimethyl sulfoxide*: 1.04
  fold change dimethylarginine (SDMA + ADMA): 0.97
  fold change docosahexaenoate (DHA; 22:6n3): 0.92
  fold change docosapentaenoate (n3 DPA; 22:5n3): 1.17
  fold change erythritol: 0.92
  fold change erythronate*: 0.99
  fold change ethanolamine: 1.13
  fold change folate: 0.99
  fold change fructose: 1.06
  fold change fumarate: 0.80
  fold change gamma-glutamylisoleucine*: 1.02
  fold change gamma-glutamylleucine: 0.87
  fold change gamma-glutamylphenylalanine: 0.85
  fold change gamma-glutamylvaline: 0.73
  fold change glucose: 0.87
  fold change glutamate: 1.00
  fold change glutamine: 0.96
  fold change glycerate: 1.05
  fold change glycerol: 1.09
  fold change glycerol 3-phosphate (G3P): 1.47
  fold change glycerophosphorylcholine (GPC): 0.95
  fold change glycine: 0.87
  fold change glycochenodeoxycholate: 1.01
  fold change glycocholate: 0.96
  fold change glycylglycine: 0.55
  fold change glycylleucine: 0.85
  fold change glycyltyrosine: 1.01
  fold change glycylvaline: 1.06
  fold change heme*: 0.95
  fold change hexadecanedioate: 0.84
  fold change hippurate: 0.98
  fold change histidine: 1.02
  fold change homostachydrine*: 1.00
  fold change hydroquinone: 0.97
  fold change indolelactate: 1.03
  fold change isobutyrylcarnitine: 0.98
  fold change isoleucine: 1.02
  fold change isovalerate: 0.80
  fold change isovalerylcarnitine: 1.29
  fold change kynurenate: 1.06
  fold change kynurenine: 1.00
  fold change lactate: 0.89
  fold change leucine: 1.03
  fold change lysine: 0.70
  fold change lysylleucine: 1.12
  fold change malate: 1.02
  fold change mannitol: 0.57
  fold change methionine: 0.96
  fold change myo-inositol: 0.85
  fold change nicotinamide: 0.80
  fold change ornithine: 0.79
  fold change p-aminobenzoate (PABA): 0.99
  fold change p-cresol sulfate: 0.91
  fold change palmitoyl sphingomyelin: 0.92
  fold change pantothenate: 1.00
  fold change phenol red: 0.97
  fold change phenol sulfate: 0.93
  fold change phenylacetylglycine: 1.02
  fold change phenylalanine: 0.98
  fold change phosphate: 0.99
  fold change pipecolate: 0.97
  fold change pro-hydroxy-pro: 0.98
  fold change proline: 0.93
  fold change propionylcarnitine: 1.00
  fold change pseudouridine: 0.96
  fold change putrescine: 0.90
  fold change pyridoxate: 0.92
  fold change pyridoxine (Vitamin B6): 1.04
  fold change pyruvate: 1.37
  fold change ribitol: 0.75
  fold change riboflavin (Vitamin B2): 0.98
  fold change scyllo-inositol: 1.09
  fold change serine: 0.61
  fold change serotonin (5HT): 0.82
  fold change sorbitol: 0.53
  fold change succinate: 1.07
  fold change taurocholate: 1.00
  fold change taurodeoxycholate: 0.93
  fold change tetradecanedioate: 1.13
  fold change thiamin (Vitamin B1): 1.00
  fold change threitol: 0.99
  fold change threonine: 0.96
  fold change trans-4-hydroxyproline: 0.90
  fold change tryptophan: 1.03
  fold change tyrosine: 0.99
  fold change uracil: 0.88
  fold change urea: 0.83
  fold change uridine: 0.93
  fold change valerylcarnitine: 1.27
  fold change valine: 0.98
  fold change xylitol: 0.88

Reference: PMC4178217, “Quinoline 3-sulfonamides inhibit lactate dehydrogenase A and reverse aerobic glycolysis in cancer cells” (Cancer & Metabolism, 2013)
